# According to patent publication US20090311237A1, “Combination therapy using a soluble hyaluronidase and a bisphosphonate” (priority 2008, published 2009):
# Like-named read-outs stand apart in the source and are kept apart here.
# Assay: Phase 1 Stage 1 clinical pharmacokinetics of SC ZA co-administered with rHuPH20
# Format: in vivo, human
# Conditions: human, serum, sc; for AUC(0-t): AUC (0-48 h); for AUC(0-t) / Cmax / AUC(0-inf) / Tmax: ZA […] SC; for AUC(0-inf): read-out: AUC (0-inf); for Tmax: read-out: Tmax; for concentration at 0 h: 0 h post infusion; for concentration at 10 min: 10 min post infusion; for concentration at 0.5 h: 0.5 h post infusion; for concentration at 1 h: 1 h post infusion; for concentration at 2 h: 2 h post infusion; for concentration at 4 h: 4 h post infusion; for concentration at 6 h: 6 h post infusion; for concentration at 8 h: 8 h post infusion
# Method: A pharmacokinetic study of zoledronic acid (ZA) co-administered with rHuPH20 in human subjects was conducted. The primary objective of the study was to determine the bioavailability of zoledronic acid dosed via subcutaneous (SC) co-administration with human recombinant hyaluronidase PH20 (rHuPH20). […] The patients were administered the prescribed dosage formulations as follows: Cohorts 1-5 were administered a single subcutaneous infusion in a dosage volume of 100 ml at a rate of 3 mL/min. […] The dosing solution is administered via needle or catheter into the SC space of the left anterior thigh (midway between the anterior iliac crest and the cephalad border of the patella). For cohorts 1-5, the dosing solutions were administered by a controlled rate infusion pump at approximately 3 mL/minute. […] The dosing solutions were administered by syringe push bolus injection. […] Serum concentration of ZA was determined using a qualified LC-MS-MS assay after derivatization with diazomethane (Zhu, L S et al. (2006) Rapid Commun. […] The assay range was from 2.0 to 400 ng/mL with a lower limit of quantitation (LLOQ) at 2.0 ng/mL. […] Non-compartmental analysis was used for derivation of primary and secondary pharmacokinetic (PK) parameters. […] Summary statistics (mean, standard deviation, and median) were calculated using JMP or Microsoft Excel.
# [1] = Subj 21, inf 0.556 hr, PH20 24000 U
# [2] = Subj 25, inf 0.549 hr, PH20 23736 U
# [3] = Subj 31, inf 0.554 hr, PH20 23952 U
# [4] = Subj 32, inf 0.556 hr, PH20 24000 U
# [5] = Subj 51, inf 0.251 hr, PH20 6024 U
# [6] = Subj 1, inf 0.554 hr, PH20 23928 U
# [7] = Subj 8, inf 0.531 hr, PH20 22944 U
# [8] = Subj 11, inf 0.554 hr, PH20 23928 U
# [9] = Subj 16, inf 0.553 hr, PH20 23904 U
# [10] = ZA 0.25 mg SC infusion + 24000 Units rHuPH20, individual subjects, read-out: Zoledronic Acid Concentration
# [11] = ZA 0.25 mg SC infusion + 24000 Units rHuPH20, n=3, read-out: Mean Conc.
# [12] = ZA 0.25 mg SC infusion + 24000 Units rHuPH20, n=3, read-out: Median Conc.
# [13] = ZA 0.5 mg SC infusion + 24000 Units rHuPH20, individual subjects, read-out: Zoledronic Acid Concentration
# [14] = ZA 0.5 mg SC infusion + 24000 Units rHuPH20, n=3, read-out: Mean Conc.
# [15] = ZA 0.5 mg SC infusion + 24000 Units rHuPH20, n=3, read-out: Median Conc.
smiles,measurement,setting,value
"O=P(O)(O)C(O)(Cn1ccnc1)P(=O)(O)O [ZA, 1-hydroxy-2-(1H-imidazol-1-yl)ethylidene-1,1-bisphosphonic acid]",AUC(0-t),"Subj 18, inf […], PH20 23304 U",69.8 ng·h/mL
same,AUC(0-t),[1],66.1 ng·h/mL
same,AUC(0-t),[2],115 ng·h/mL
same,AUC(0-t),"Subj 26, inf […], PH20 23088 U",150 ng·h/mL
same,AUC(0-t),[3],234 ng·h/mL
same,AUC(0-t),[4],277 ng·h/mL
same,AUC(0-t),[5],471 ng·h/mL
same,AUC(0-t),"Subj 77, inf […], PH20 6000 U",618 ng·h/mL
same,Cmax,[6],7.75 ng/mL
same,AUC(0-inf),[6],29.9 ng·h/mL
same,Tmax,[6],1.02 h
same,Cmax,[7],5.67 ng/mL
same,AUC(0-inf),[7],32.6 ng·h/mL
same,Tmax,[7],1.41 h
same,Cmax,[8],6.84 ng/mL
same,AUC(0-inf),[8],30.8 ng·h/mL
same,Tmax,[8],1.25 h
same,Cmax,[9],15.3 ng/mL
same,AUC(0-inf),[9],62.5 ng·h/mL
same,Tmax,[9],0.8 h
same,Cmax,"Subj 18, inf […], PH20 23304 U",17.1 ng/mL
same,AUC(0-inf),"Subj 18, inf […], PH20 23304 U",68.1 ng·h/mL
same,Tmax,"Subj 18, inf […], PH20 23304 U",1.29 h
same,Cmax,[1],14.2 ng/mL
same,AUC(0-inf),[1],64.3 ng·h/mL
same,Tmax,[1],1.31 h
same,Cmax,[2],30.1 ng/mL
same,AUC(0-inf),[2],117 ng·h/mL
same,Tmax,[2],1.3 h
same,Cmax,"Subj 26, inf […], PH20 23088 U",33.4 ng/mL
same,AUC(0-inf),"Subj 26, inf […], PH20 23088 U",153 ng·h/mL
same,Tmax,"Subj 26, inf […], PH20 23088 U",1.03 h
same,Cmax,[3],53 ng/mL
same,AUC(0-inf),[3],239 ng·h/mL
same,Tmax,[3],1.54 h
same,Cmax,[4],58.7 ng/mL
same,AUC(0-inf),[4],295 ng·h/mL
same,Tmax,[4],1.56 h
same,Cmax,[5],95.4 ng/mL
same,AUC(0-inf),[5],508 ng·h/mL
same,Tmax,[5],0.52 h
same,Cmax,"Subj 77, inf […], PH20 6000 U",147 ng/mL
same,AUC(0-inf),"Subj 77, inf […], PH20 6000 U",678 ng·h/mL
same,Tmax,"Subj 77, inf […], PH20 6000 U",0.75 h
same,concentration at 0 h,[10],4.5 ng/mL
same,concentration at 0 h,[11],4.74 ng/mL
same,concentration at 0 h,[12],4.69 ng/mL
same,concentration at 10 min,[10],7.43 ng/mL
same,concentration at 10 min,[11],5.76 ng/mL
same,concentration at 10 min,[12],4.97 ng/mL
same,concentration at 0.5 h,[10],7.75 ng/mL
same,concentration at 0.5 h,[11],6.39 ng/mL
same,concentration at 0.5 h,[12],6.25 ng/mL
same,concentration at 1 h,[10],7.25 ng/mL
same,concentration at 1 h,[11],6.51 ng/mL
same,concentration at 1 h,[12],6.6 ng/mL
same,concentration at 2 h,[10],5.42 ng/mL
same,concentration at 2 h,[11],5.06 ng/mL
same,concentration at 2 h,[12],5.42 ng/mL
same,concentration at 4 h,[10],2.56 ng/mL
same,concentration at 4 h,[11],3.02 ng/mL
same,concentration at 4 h,[12],3.06 ng/mL
same,concentration at 6 h,[10],1.2 ng/mL
same,concentration at 6 h,[11],1.52 ng/mL
same,concentration at 6 h,[12],1.35 ng/mL
same,concentration at 8 h,[10],0.56 ng/mL
same,concentration at 8 h,[11],0.82 ng/mL
same,concentration at 8 h,[12],0.79 ng/mL
same,concentration at 0 h,[13],10.8 ng/mL
same,concentration at 0 h,[14],11.8 ng/mL
same,concentration at 0 h,[15],11.1 ng/mL
same,concentration at 10 min,[13],15 ng/mL
same,concentration at 10 min,[14],15 ng/mL
same,concentration at 10 min,[15],15 ng/mL
same,concentration at 0.5 h,[13],13.8 ng/mL
same,concentration at 0.5 h,[14],14.4 ng/mL
same,concentration at 0.5 h,[15],13.8 ng/mL
same,concentration at 1 h,[13],14.1 ng/mL
same,concentration at 1 h,[14],14.3 ng/mL
same,concentration at 1 h,[15],14.1 ng/mL
same,concentration at 2 h,[13],11.1 ng/mL
same,concentration at 2 h,[14],11.1 ng/mL
same,concentration at 2 h,[15],11.1 ng/mL
same,concentration at 4 h,[13],5.27 ng/mL
same,concentration at 4 h,[14],5.72 ng/mL
same,concentration at 4 h,[15],5.87 ng/mL
same,concentration at 6 h,[13],2.5 ng/mL
same,concentration at 6 h,[14],2.69 ng/mL
